Data set [1] deals with Peptidyl-prolyl cis-trans isomerase FKBP8 (Homo sapiens, UniProt Q14318). The experiment in a line: Inhibition of GST-tagged human FKBP38 expressed in Escherichia coli BL21 (DE3) using NH2-EDASRMEEVD-COOH peptide as substrate preincubated for 15 mins followed by substrate addition measured after 15 mins by Alpha Screen assay. A general note: Bead proximity is the source of the signal in Alpha formats.

Data set [2] has as its target T1, Serine/threonine-protein phosphatase 5 (Homo sapiens, UniProt P53041).
T1 sequence (P53041 whole entry): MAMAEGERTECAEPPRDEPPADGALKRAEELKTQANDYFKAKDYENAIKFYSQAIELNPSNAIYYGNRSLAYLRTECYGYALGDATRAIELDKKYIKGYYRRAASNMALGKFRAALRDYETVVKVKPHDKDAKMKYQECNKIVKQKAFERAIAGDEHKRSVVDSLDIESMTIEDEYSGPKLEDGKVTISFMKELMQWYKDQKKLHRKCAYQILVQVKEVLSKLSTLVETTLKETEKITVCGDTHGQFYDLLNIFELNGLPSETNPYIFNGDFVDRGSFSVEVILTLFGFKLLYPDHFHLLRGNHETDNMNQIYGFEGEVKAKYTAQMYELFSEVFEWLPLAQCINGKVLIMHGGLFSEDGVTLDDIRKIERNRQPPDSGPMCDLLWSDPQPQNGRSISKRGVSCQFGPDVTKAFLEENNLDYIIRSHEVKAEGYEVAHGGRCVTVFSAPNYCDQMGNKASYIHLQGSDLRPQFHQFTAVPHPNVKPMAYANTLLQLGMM
The experiment in a line: Inhibition of GST-tagged human PP5 expressed in Escherichia coli BL21 (DE3) using NH2-EDASRMEEVD-COOH peptide as substrate preincubated for 15 mins followed by substrate addition measured after 15 mins by Alpha Screen assay.

Data set [3] has as its target Peptidyl-prolyl cis-trans isomerase D (Homo sapiens, UniProt Q08752). The data set can be described thus: Inhibition of GST-tagged human CYP40 expressed in Escherichia coli BL21 (DE3) using NH2-EDASRMEEVD-COOH peptide as substrate preincubated for 15 mins followed by substrate addition measured after 15 mins by Alpha Screen assay.
Data set [4] deals with T2, Mitochondrial import receptor subunit TOM70 (Homo sapiens, UniProt O94826).
T2 sequence (O94826 whole entry): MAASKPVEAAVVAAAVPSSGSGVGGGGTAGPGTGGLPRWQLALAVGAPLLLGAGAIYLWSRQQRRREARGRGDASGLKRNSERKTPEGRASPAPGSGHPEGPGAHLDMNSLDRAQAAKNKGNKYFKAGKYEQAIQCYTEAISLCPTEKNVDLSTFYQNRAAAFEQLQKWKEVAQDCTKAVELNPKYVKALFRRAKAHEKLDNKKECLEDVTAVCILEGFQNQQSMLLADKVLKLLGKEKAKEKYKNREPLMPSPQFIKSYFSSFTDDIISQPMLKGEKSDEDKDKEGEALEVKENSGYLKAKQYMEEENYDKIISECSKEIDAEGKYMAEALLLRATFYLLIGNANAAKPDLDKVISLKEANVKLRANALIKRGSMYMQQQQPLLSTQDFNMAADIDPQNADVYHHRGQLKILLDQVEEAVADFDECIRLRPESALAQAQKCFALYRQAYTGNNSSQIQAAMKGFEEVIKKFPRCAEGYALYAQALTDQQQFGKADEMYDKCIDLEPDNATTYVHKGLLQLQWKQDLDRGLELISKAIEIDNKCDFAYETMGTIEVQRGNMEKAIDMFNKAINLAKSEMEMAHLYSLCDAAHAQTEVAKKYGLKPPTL
The experiment in a line: Inhibition of GST-tagged human TOM70 expressed in Escherichia coli BL21 (DE3) using NH2-EDASRMEEVD-COOH peptide as substrate preincubated for 15 mins followed by substrate addition measured after 15 mins by Alpha Screen assay.

In data set [5] the target is T3, Peptidyl-prolyl cis-trans isomerase FKBP5 (Homo sapiens, UniProt Q13451).
T3 sequence (Q13451 whole entry): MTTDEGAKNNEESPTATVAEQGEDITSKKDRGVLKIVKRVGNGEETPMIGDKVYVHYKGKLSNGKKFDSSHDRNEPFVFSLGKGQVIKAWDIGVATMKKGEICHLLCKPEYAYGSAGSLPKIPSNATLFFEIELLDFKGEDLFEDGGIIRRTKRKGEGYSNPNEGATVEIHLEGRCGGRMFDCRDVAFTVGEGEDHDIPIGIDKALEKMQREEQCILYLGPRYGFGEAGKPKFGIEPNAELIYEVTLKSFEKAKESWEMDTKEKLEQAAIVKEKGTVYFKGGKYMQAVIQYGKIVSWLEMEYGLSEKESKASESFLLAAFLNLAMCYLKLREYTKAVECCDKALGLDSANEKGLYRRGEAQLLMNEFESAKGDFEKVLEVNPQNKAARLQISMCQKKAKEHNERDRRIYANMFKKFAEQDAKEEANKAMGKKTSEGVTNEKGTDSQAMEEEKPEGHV
The experiment in a line: Inhibition of GST-tagged human FKBP51 expressed in Escherichia coli BL21 (DE3) using NH2-EDASRMEEVD-COOH peptide as substrate preincubated for 15 mins followed by substrate addition measured after 15 mins by Alpha Screen assay.

Data set [6] addresses T3, Peptidyl-prolyl cis-trans isomerase FKBP5. The experiment in a line: Binding affinity to GST-tagged human FKBP51 expressed in Escherichia coli BL21 (DE3) immobilized in CM7 sensor chip assessed as equilibrium dissociation constant by SPR analysis. (Surface plasmon resonance follows binding to a sensor surface in real time, without labels.)
The target in data set [7] is T4, Peptidyl-prolyl cis-trans isomerase FKBP4 (Homo sapiens, UniProt Q02790).
T4 sequence (Q02790 whole entry): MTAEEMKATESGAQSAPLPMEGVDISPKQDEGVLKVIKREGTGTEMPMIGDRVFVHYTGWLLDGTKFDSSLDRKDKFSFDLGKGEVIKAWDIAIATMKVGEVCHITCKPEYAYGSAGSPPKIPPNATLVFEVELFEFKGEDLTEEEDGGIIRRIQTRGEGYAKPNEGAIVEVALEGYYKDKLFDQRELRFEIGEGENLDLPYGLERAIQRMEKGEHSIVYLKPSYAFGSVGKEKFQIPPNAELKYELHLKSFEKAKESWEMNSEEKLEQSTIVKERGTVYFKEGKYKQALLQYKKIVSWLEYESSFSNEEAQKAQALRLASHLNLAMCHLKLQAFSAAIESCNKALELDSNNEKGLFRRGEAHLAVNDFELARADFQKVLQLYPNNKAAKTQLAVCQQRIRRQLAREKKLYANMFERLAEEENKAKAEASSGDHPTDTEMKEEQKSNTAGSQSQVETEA
The data set can be described thus: Binding affinity to GST-tagged human FKBP52 expressed in Escherichia coli BL21 (DE3) immobilized in CM7 sensor chip assessed as equilibrium dissociation constant by SPR analysis.

Data set [8] in a line: Inhibition of GST-tagged FKBP51 N381Y mutant (unknown origin) using NH2-EDASRMEEVD-COOH peptide as substrate preincubated for 15 mins followed by substrate addition measured after 15 mins by Alpha Screen assay. Also noted: species or system Homo sapiens.
Data set [9] in a line: Solubility of compound in cell culture media upto 30 uM. In kind it is physicochemical.
For data set [10], the system named is HEK293. The experiment in a line: Induction of cell proliferation in HEK293 cells at 10 uM measured for 1 to 4 hrs by MTT assay relative to control. In kind it is functional, Homo sapiens. The following applies: time 1-4 hrs. Background: Formazan colour is commonly taken as a measure of viable cells.

Peptidyl-prolyl cis-trans isomerase FKBP8, sequence (Q14318 whole entry): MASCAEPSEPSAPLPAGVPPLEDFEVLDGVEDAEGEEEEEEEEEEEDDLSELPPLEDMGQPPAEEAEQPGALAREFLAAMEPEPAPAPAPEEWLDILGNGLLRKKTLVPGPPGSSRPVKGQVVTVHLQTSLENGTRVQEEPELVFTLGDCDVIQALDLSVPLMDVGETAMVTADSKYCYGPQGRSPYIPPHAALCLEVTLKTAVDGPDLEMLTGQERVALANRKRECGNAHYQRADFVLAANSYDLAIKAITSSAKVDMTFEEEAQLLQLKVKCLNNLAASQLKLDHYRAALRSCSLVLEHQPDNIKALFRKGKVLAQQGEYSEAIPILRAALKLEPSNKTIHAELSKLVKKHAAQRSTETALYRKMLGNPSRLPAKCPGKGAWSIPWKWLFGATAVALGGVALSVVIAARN
Peptidyl-prolyl cis-trans isomerase D, sequence (Q08752 whole entry): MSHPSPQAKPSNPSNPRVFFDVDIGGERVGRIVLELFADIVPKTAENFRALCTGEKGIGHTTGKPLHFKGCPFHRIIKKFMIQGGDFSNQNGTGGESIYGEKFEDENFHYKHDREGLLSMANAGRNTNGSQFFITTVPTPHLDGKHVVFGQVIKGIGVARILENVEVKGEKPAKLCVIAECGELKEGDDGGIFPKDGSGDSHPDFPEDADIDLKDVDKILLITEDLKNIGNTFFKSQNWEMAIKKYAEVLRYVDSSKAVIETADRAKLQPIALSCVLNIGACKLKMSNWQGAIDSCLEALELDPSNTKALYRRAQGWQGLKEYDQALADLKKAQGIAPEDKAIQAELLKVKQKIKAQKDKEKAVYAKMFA

The term IC50 denotes the point on the concentration scale where inhibition reaches its midpoint. Read a high IC50 as a need for much substance. As for `Cc1sc(NC(=O)CCCC(=O)Nc2sc(C)c(C)c2C(N)=O)c(C(N)=O)c1C`, the half-maximal inhibitory concentration (IC50) worked out at 4000 nM in data set [1], 2000 nM in data set [2], 1500 nM in [3] and 1200 nM in data set [4].
By Kd is commonly meant the equilibrium constant for the complex coming apart. Regarding `COC(=O)c1c(NC(=O)CSc2nnc(-c3ccco3)c(-c3ccco3)n2)sc(C)c1C`, the IC50 in [5] turned out to be 1500 nM; in data set [1], 2500 nM; in data set [2], 2500 nM; in data set [4], 5000 nM; in [8], 500 nM. The Kd in [6] stood at 48400 nM; in [7] it was 745000 nM. In addition, the solubility entry in data set [9] is “Soluble”. In [10], this compound registered an Activity of 10%.

(Values after ChEMBL document CHEMBL5523701, “Structure-based discovery of small molecule inhibitors of FKBP51-Hsp90 protein-protein interaction” (Eur J Med Chem, 2024).)
